Laboratory results published in US9855268B2, “Triazolo[4,5-d]pyrimidine derivatives” (Merck Patent GmbH, priority 2013, dated 2018).
Like-named read-outs stand apart in the source and are kept apart here.

Assays:
[1] = target: T1, GCN2 (Homo sapiens, UniProt Q9P2K8); assay: GCN2 enzyme assay (TR-FRET Lanthascreen, GFP-eIF2alpha phosphorylation); type: biochemical; conditions: 10 μM ATP, 80 nM GFP-eIF2a, 30 nM GCN2
In short: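 Phosphorylation of GFP-eIF2alpha (80 nM) by GCN2 run at room temperature with 10 μM ATP. After EDTA quench, product quantified by Lanthascreen TR-FRET (antibody–GFP complex, 340 nm excitation).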
Target sequence in this assay (Q9P2K8 whole entry, species assumed): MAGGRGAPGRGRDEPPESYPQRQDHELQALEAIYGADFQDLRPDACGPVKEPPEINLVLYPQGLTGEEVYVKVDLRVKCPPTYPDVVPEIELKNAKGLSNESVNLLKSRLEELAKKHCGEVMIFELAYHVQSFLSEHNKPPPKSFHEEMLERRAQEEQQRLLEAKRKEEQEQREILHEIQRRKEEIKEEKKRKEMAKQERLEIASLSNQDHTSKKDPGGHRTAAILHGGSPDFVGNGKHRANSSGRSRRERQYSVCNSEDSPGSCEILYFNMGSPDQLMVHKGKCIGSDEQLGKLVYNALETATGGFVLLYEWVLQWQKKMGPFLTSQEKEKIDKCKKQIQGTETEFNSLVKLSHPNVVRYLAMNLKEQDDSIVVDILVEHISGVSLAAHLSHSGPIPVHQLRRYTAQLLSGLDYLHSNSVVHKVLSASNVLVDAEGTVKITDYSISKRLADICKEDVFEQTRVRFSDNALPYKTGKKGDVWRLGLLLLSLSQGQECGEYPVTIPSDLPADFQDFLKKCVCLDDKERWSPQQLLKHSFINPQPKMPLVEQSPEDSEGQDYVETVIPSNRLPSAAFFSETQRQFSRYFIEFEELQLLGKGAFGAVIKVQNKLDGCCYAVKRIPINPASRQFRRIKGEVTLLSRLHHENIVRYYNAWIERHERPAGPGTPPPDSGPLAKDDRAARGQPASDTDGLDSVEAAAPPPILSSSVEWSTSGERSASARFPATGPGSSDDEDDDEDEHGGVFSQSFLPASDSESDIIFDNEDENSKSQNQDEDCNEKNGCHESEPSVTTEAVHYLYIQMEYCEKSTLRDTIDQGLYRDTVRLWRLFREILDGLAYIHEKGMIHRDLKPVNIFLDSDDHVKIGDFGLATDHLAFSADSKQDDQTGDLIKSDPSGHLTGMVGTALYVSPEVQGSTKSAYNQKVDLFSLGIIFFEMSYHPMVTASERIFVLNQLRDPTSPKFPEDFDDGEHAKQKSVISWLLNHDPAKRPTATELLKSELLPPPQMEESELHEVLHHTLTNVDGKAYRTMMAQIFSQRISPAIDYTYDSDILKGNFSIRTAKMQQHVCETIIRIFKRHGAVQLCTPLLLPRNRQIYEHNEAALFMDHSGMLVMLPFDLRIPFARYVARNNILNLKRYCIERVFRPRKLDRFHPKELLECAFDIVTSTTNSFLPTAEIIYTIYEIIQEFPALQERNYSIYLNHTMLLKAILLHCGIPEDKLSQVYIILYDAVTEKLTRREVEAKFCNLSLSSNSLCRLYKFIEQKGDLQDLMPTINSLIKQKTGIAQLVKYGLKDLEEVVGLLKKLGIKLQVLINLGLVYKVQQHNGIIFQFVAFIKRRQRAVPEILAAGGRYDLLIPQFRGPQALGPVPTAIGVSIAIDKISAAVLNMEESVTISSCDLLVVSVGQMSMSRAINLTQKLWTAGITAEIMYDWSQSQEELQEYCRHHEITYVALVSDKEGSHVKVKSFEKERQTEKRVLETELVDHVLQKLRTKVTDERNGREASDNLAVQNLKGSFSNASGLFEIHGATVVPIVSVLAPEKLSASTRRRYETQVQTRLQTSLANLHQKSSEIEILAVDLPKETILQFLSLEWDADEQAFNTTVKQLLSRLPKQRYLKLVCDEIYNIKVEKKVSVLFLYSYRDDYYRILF

[2] = target: GSK3α(h) (Homo sapiens, UniProt P49840); assay: GSK3α radiometric kinase assay (33P-ATP, phospho GS2 peptide); type: biochemical; conditions: read-out: IC50 GSK3α (enzyme assay)
Procedure: GSK3α(h) is incubated with 8 mM MOPS pH 7,0, 0,2 mM EDTA, 20 μM
(§1) […](p)EDEEE (phosphor GS2 peptide), 10 mM Mg-acetate and [gamma-33P-ATP](specific activity approx. 500 cpm/Pmol, concentration as required). The reaction is initiated by the addition of the MgATP. After incubation for 40 minutes at the room temperature, the Reaction is stopped by the addition of 3% phosphoric acid solution. 10 μL of reaction is then spotted onto a P30 filtermat and washed three times for 5 minutes in 50 mM phosphoric acid and once in methanol prior to drying and scintillation counting.

[3] = target: GSK3β(h) (Homo sapiens, UniProt P49841); assay: GSK3β radiometric kinase assay (33P-ATP, phospho GS2 peptide); type: biochemical; conditions: read-out: IC50 GSK3β (enzyme assay)
Procedure: GSK3β(h) is incubated with 8 mM MOPS pH 7,0, 0,2 mM EDTA, 20 μM
as §1

[4] = target: T1, GCN2; assay: Cellular assay of GCN2 activity (phospho-eIF2alpha immunocytochemistry after tryptophanol); type: cell-based; parameters: endogenous in cells; host or cells: U2OS; conditions: Human U2OS cells, 2 h compound, 600 μM tryptophanol 30 min
Procedure: Cellular Assay for the Determination of Compound Activities
Human U2OS cells (2000 cells/well) are seeded into 384-well plates and incubated for 20 hours.
The next day, the cells are treated with the test compounds and incubated for 2 hours. Then, tryptophanol, at a final concentration of 600 μM, is added to the cells and those are incubated for 30 minutes.
The analysis of cellular GCN2 activities is done by immunocytochemistry.
Briefly, cells are fixated on the well surfaces by formaldehyde and permeabilised with Triton X-100.
The analysis and quantification of phosphorylated GCN2 is done by scanning the plates in the Acumen Explorer system (TTPLabtech). The obtained data are normalised against the untreated control wells (DMSO only) and expressed as % effect values. The determination of IC50 values is done by using the Graph Pad Prism software.
Target sequence in this assay (Q9P2K8 whole entry): as the sequence (Q9P2K8 whole entry, species assumed) above

GSK3β(h), sequence (P49841 whole entry): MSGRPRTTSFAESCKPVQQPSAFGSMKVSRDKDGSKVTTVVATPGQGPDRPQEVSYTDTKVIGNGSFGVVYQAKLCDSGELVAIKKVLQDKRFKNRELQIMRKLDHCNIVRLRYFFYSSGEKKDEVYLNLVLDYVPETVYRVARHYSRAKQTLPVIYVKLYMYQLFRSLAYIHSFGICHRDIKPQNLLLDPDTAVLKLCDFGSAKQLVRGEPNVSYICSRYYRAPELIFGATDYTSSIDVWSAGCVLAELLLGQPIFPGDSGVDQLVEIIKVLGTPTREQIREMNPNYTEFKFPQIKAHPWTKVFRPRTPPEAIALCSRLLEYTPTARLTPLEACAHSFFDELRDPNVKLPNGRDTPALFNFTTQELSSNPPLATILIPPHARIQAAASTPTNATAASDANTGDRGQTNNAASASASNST
GSK3α(h), sequence (P49840 whole entry): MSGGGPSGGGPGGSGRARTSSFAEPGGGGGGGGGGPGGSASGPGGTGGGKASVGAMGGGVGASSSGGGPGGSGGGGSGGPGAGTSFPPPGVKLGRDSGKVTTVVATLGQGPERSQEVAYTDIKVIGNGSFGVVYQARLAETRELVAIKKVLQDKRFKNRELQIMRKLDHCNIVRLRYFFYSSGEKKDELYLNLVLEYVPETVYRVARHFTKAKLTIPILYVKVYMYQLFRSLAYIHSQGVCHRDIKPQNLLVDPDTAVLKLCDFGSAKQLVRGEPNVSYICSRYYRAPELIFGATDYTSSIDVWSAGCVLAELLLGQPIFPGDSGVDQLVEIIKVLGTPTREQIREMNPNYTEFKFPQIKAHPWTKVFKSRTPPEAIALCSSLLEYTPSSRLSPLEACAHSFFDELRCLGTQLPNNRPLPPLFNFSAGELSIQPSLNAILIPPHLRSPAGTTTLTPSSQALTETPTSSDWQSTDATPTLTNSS

## NC(=O)[C@@H]1CC[C@@H](Nc2ncc3nnn(-c4ccc(-c5cnn(CCn6ncccc6=O)c5)cc4)c3n2)C1 [A237, (1R,3R)-3-[3-(4-{1-[2-(6-oxo-6H-pyridazin-1-yl)-ethyl]-1H-pyrazol-4-yl}-phenyl)-3H-[1,2,3]triazolo[4,5-d]pyrimidin-5-ylamino]-cyclopentanecarboxylic acid amide]
[1]
  IC50: < 1000 nM
[2]
  IC50: < 1000 nM
[3]
  IC50: < 1000 nM

## CCOc1ccc(-n2nnc3cnc(N[C@@H]4CC[C@@H](C(=O)NS(C)(=O)=O)C4)nc32)cc1 [A286, N-{(1R,3R)-3-[3-(4-ethoxy-phenyl)-3H-[1,2,3]triazolo[4,5-d]-pyrimidin-5-ylamino]-cyclopentanecarbonyl}-methanesulfonamide]
[1]
  IC50: < 1000 nM
[2]
  IC50: < 1000 nM
[3]
  IC50: < 1000 nM

## CC(C)(O)c1ccc(-n2nnc3cnc(N[C@@H]4CC[C@@H](C(N)=O)C4)nc32)cc1 [A289, (1R,3R)-3-{3-[4-(1-hydroxy-1-methyl-ethyl)-phenyl]-3H-[1,2,3]triazolo[4,5-d]pyrimidin-5-ylamino}-cyclopentanecarboxylic acid amide]
[1]
  IC50: < 1000 nM
[2]
  IC50: < 1000 nM
[3]
  IC50: < 1000 nM

## COc1ccc(-n2nnc3cnc(N[C@@H]4CC[C@H](C(N)=O)C4)nc32)cc1 [A136, (1S,3R)-3-[3-(4-methoxy-phenyl)-3H-[1,2,3]triazolo[4,5-d]pyrimidin-5-ylamino]-cyclopentanecarboxylic acid amide]
[1]
  IC50: < 1000 nM
[2]
  IC50: < 1000 nM
[3]
  IC50: < 1000 nM

## NC(=O)[C@H]1CC[C@@H](Nc2ncc3nnn(-c4ccc5ncccc5c4)c3n2)C1 [A189, (1S,3R)-3-(3-quinolin-6-yl-3H-[1,2,3]triazolo[4,5-d]pyrimidin-5-ylamino)-cyclopentanecarboxylic acid amide]
[1]
  IC50: < 1000 nM
[2]
  IC50: < 1000 nM
[4]
  IC50: 1000 to 5000 nM

## COc1ccc(-n2nnc3cnc(N[C@@H]4CC[C@H](CO)C4)nc32)cc1 [A112, {(1S,3R)-3-[3-(4-methoxy-phenyl)-3H-[1,2,3]triazolo[4,5-d]pyrimidin-5-ylamino]-cyclopentyl}-methanol]
[1]
  IC50: < 1000 nM
[2]
  IC50: < 1000 nM
[4]
  IC50: 1000 to 5000 nM

## NC(=O)[C@H]1CC[C@@H](Nc2ncc3nnn(-c4ccc(-c5cnn(CCN6CCCC6)c5)cc4)c3n2)C1 [A216, (1S,3R)-3-(3-{4-[1-(2-pyrrolidin-1-yl-ethyl)-1H-pyrazol-4-yl]-phenyl}-3H-[1,2,3]triazolo[4,5-d]pyrimidin-5-ylamino)-cyclopentanecarboxylic acid amide]
[1]
  IC50: < 1000 nM
[2]
  IC50: < 1000 nM
[4]
  IC50: 1000 to 5000 nM

## COc1ccc(-n2nnc3cnc(N[C@@H]4CC[C@@H](C(=O)N5CCN(C)CC5)C4)nc32)cc1 [A241, {(1R,3R)-3-[3-(4-methoxy-phenyl)-3H-[1,2,3]triazolo[4,5-d]pyrimidin-5-ylamino]-cyclopentyl}-(4-methyl-piperazin-1-yl)-methanone]
[1]
  IC50: < 1000 nM
[2]
  IC50: < 1000 nM
[4]
  IC50: 1000 to 5000 nM

## COc1ccc(-n2nnc3cnc(N[C@@H]4CC[C@@H](CO)C4)nc32)cc1 [A114, {(1R,3R)-3-[3-(4-methoxy-phenyl)-3H-[1,2,3]triazolo[4,5-d]pyrimidin-5-ylamino]-cyclopentyl}-methanol]
[1]
  IC50: < 1000 nM
[2]
  IC50: < 1000 nM
[4]
  IC50: 1000 to 5000 nM

## COCCn1cc(-c2ccc(-n3nnc4cnc(N[C@@H]5CC[C@@H](N)C5)nc43)cc2)cn1 [A123, (1R,3R)—N-(3-{4-[1-(2-methoxy-ethyl)-1H-pyrazol-4-yl]-phenyl}-3H-[1,2,3]triazolo[4,5-d]pyrimidin-5-yl)-cyclopentane-1,3-diamine]
[1]
  IC50: < 1000 nM
[2]
  IC50: < 1000 nM
[4]
  IC50: < 1000 nM

## CN1CCN(CCNC(=O)[C@H]2CC[C@@H](Nc3ncc4nnn(-c5ccc6ncccc6c5)c4n3)C2)CC1 [A242, (1S,3R)-3-(3-quinolin-6-yl-3H-[1,2,3]triazolo[4,5-d]pyrimidin-5-ylamino)-cyclopentanecarboxylic acid [2-(4-methyl-piperazin-1-yl)-ethyl]-amide]
[1]
  IC50: < 1000 nM
[2]
  IC50: < 1000 nM
[4]
  IC50: 1000 to 5000 nM

## NC(=O)[C@@H]1CC[C@@H](Nc2ncc3nnn(-c4ccc(-c5cnn(CCO)c5)cc4)c3n2)C1 [A255, (1R,3R)-3-(3-{4-[1-(2-hydroxy-ethyl)-1H-pyrazol-4-yl]-phenyl}-3H-[1,2,3]triazolo[4,5-d]pyridimdin-5-ylamino)-cyclopentanecarboxylic acid amide]
[1]
  IC50: < 1000 nM
[2]; 10 μM ATP or Km ATP
  IC50: < 1000 nM
[4]
  IC50: 1000 to 5000 nM

## CN1CCN(CCC(=O)N2CC[C@@H](Nc3ncc4nnn(-c5ccc(-c6cnn(C)c6)cc5)c4n3)C2)CC1 [A131, 3-(4-methyl-piperazin-1-yl)-1-((R)-3-{3-[4-(1-methyl-1H-pyrazol-4-yl)-phenyl]-3H-[1,2,3]triazolo[4,5-d]pyrimidin-5-ylamino}-pyrrolidin-1-yl)-propan-1-one]
[1]
  IC50: < 1000 nM
[2]
  IC50: < 1000 nM
[4]
  IC50: 5000 to 10000 nM

## N[C@H]1CC[C@H](Nc2ncc3nnn(-c4ccc(-c5cnn(CCn6cccn6)c5)cc4)c3n2)CC1 [A215, N-(3-{4-[1-(2-pyrazol-1-yl-ethyl)-1H-pyrazol-4-yl]-phenyl}-3H-[1,2,3]triazolo[4,5-d]pyrimidin-5-yl)-cyclohexane-1,4-diamine]
[1]
  IC50: < 1000 nM
[2]
  IC50: < 1000 nM
[4]
  IC50: 5000 to 10000 nM

## NC(=O)[C@@H]1CC[C@@H](Nc2ncc3nnn(-c4ccc5ncccc5c4)c3n2)C1 [A190, (1R,3R)-3-(3-quinolin-6-yl-3H-[1,2,3]triazolo[4,5-d]pyrimidin-5-ylamino)-cyclopentanecarboxylic acid amide]
[1]
  IC50: < 1000 nM
[2]
  IC50: < 1000 nM
[4]
  IC50: 5000 to 10000 nM

## NC(=O)[C@H]1CC[C@@H](Nc2ncc3nnn(-c4ccc(-c5cnn(CCO)c5)cc4)c3n2)C1 [A258, (1S,3R)-3-(3-{4-[1-(2-hydroxy-ethyl)-1H-pyrazol-4-yl]-phenyl}-3H-[1,2,3]triazolo[4,5-d]pyrimidin-5-ylamino)-cyclopentanecarboxylic acid amide]
[1]
  IC50: < 1000 nM
[2]
  IC50: < 1000 nM
[4]
  IC50: 1000 to 5000 nM

## COc1ccc(-n2nnc3cnc(N[C@@H]4CC[C@@H](C(N)=O)C4)nc32)cc1 [A140, (1R,3R)-3-[3-(4-methoxy-phenyl)-3H-[1,2,3]triazolo[4,5-d]pyrimidin-5-ylamino]-cyclopentanecarboxylic acid amide]
[1]
  IC50: < 1000 nM
[2]
  IC50: < 1000 nM
[4]
  IC50: 1000 to 5000 nM

## N[C@H]1CC[C@H](Nc2ncc3nnn(-c4ccc(OC5CCOCC5)cc4)c3n2)CC1 [A127, N-{3-[4-(tetrahydro-pyran-4-yloxy)-phenyl]-3H-[1,2,3]triazolo[4,5-d]pyrimidin-5-yl}-trans-cyclohexane-1,4-diamine]
[1]
  IC50: < 1000 nM
[2]
  IC50: < 1000 nM
[4]
  IC50: 1000 to 5000 nM

## N#CCCn1cc(-c2ccc(-n3nnc4cnc(N[C@@H]5CC[C@@H](O)C5)nc43)cc2)cn1 (relative stereo) [A214, 3-(4-{4-[5-(trans-3-hydroxy-cyclopentylamino)-[1,2,3]triazolo[4,5-d]pyrimidin-3-yl]-phenyl}-pyrazol-1-yl)-propionitrile]
[1]
  IC50: < 1000 nM
[2]
  IC50: < 1000 nM
[4]
  IC50: 1000 to 5000 nM

## NC1CC[C@@H](Nc2ncc3nnn(-c4ccc(-c5cnn(CCO)c5)cc4)c3n2)C1 (stereo in doubt) [A257, 2-(4-{4-[5-((1R,3S)-3-amino-cyclopentylamino)-[1,2,3]triazolo[4,5-d]pyrimidin-3-yl]-phenyl}-pyrazol-1-yl)-ethanol]
[1]
  IC50: < 1000 nM
[2]
  IC50: < 1000 nM
[4]
  IC50: 5000 to 10000 nM
